Laboratory results taken from US20230371511A1, “MIXTURES CONTAINING CYCLOBUTRIFLURAM” (BASF SE, priority 2020, published 2023).

Legend:
Format in all cases: cell-based
Details in all cases: single active, 7 days after inoculation
Septoria tritici = assay: Microtest: activity against leaf blotch on wheat caused by Septoria tritici (MTP growth, 405 nm)
Method: (§1) The active compounds were formulated separately as a stock solution having a concentration of 10000 ppm in dimethyl sulfoxide.
(§2) The stock solutions were mixed according to the ratio, pipetted onto a micro titer plate (MTP) and diluted with water to the stated concentrations. A spore suspension of Septoria tritici in an aqueous biomalt or yeast-bactopeptone-glycerine or DOB solution was then added. The plates were placed in a water vapor-saturated chamber at a temperature of 18° C. Using an absorption photometer, the MTPs were measured at 405 nm 7 days after the inoculation.
(§3) The measured parameters were compared to the growth of the active compound-free control variant (100%) and the fungus-free blank value to determine the relative growth in % of the pathogens in the respective active compounds.
(§4) These percentages were converted into efficacies.
(§5) An efficacy of 0 means that the growth level of the pathogens corresponds to that of the untreated control; an efficacy of 100 means that the pathogens were not growing.
(§6) The expected efficacies of active compound mixtures were determined using Colby's formula [R. S. Colby, “Calculating synergistic and antagonistic responses of herbicide combinations”, Weeds 15, 20-22 (1967)] and compared with the observed efficacies.

Alternaria solani = assay: Microtest: activity against early blight caused by Alternaria solani (MTP growth, 405 nm)
Text: as §1, §3, §4
as §2, with “Alternaria solani” for “Septoria tritici”
as §5, §6

Cercospora sojina = assay: Microtest: activity against Cercospora sojina (MTP growth, 405 nm)
Method: as §1
as §2, with “Cercospora sojina” for “Septoria tritici”, “COB” for “DOB”
as §3, §4, §5, §6

Rhizoctonia solani = assay: Microtest: activity against Rhizoctonia solani (MTP growth, 405 nm)
Method: as §1
as §2, with “Rhizoctonia solani” for “Septoria tritici”, “COB” for “DOB”, “[…].” for “18° C.”
as §3, §4, §5, §6

[1] = system: Colletotrichum orbiculare; assay: Microtest: activity against anthracnose caused by Colletotrichum orbiculare (MTP growth, 405 nm)
Text: as §1, §3, §4
as §2, with “Colletotrichum orbiculare” for “Septoria tritici”, “bio malt” for “biomalt or yeast-bactopeptone-glycerine or DOB”
as §5, §6

[2] = 0.25 ppm, 0 = growth as untreated control, 100 = no growth

Q: Which results are given for `CC(O)(Cn1cncn1)c1ccc(Oc2ccc(Cl)cc2)cc1C(F)(F)F` (stereo not drawn) [Mefentrifluconazol, mefentrifluconazole]?
A: Observed efficacy (Septoria tritici; 0 ppm (so in the source)): 68; Observed efficacy (Septoria tritici; 0.063 ppm): 61; Observed efficacy (Septoria tritici; [2]): 70

Q: Which results are given for `COCC(=O)N(c1c(C)cccc1C)[C@H](C)C(=O)OC` [Mefenoxam, mefenoxam]?
A: Observed efficacy (Septoria tritici; 0.063 ppm): 6; Observed efficacy (Septoria tritici; 1 ppm): 4; Observed efficacy (Septoria tritici; 4 ppm): 2

Q: With `Cn1nnnc1/C(=N\OCc1cccc(NC(=O)OC(C)(C)C)n1)c1ccccc1` [Picarbutrazox, picarbutrazox] as the compound, how does the Observed efficacy (Alternaria solani; 0.063 ppm) read?
A: 8

Q: How did the Observed efficacy (Septoria tritici; 0.063 ppm) turn out when `O=C(NC1CCC1c1ccc(Cl)cc1Cl)c1cccnc1C(F)(F)F` (stereo in doubt) [Cyclobutrifluram, cyclobutrifluram] was run?
A: 0

Q: And the Observed efficacy (Septoria tritici; [2])?
A: 7

Q: What about the Observed efficacy (Cercospora sojina; 0.016 ppm) of the same compound?
A: 18

Q: What about the Observed efficacy (Rhizoctonia solani; 1 ppm) of the same compound?
A: 0

Q: And the Observed efficacy (Alternaria solani; 0.004 ppm)?
A: 40

Q: What about the Observed efficacy (Alternaria solani; 0.016 ppm) of the same compound?
A: 74

Q: And the Observed efficacy ([1]; 1 ppm)?
A: 1

Q: What does the source list for `Cc1nc2c(F)c(F)ccc2cc1Oc1cccc(F)c1C(C)(C)O` [Ipflufenoquin, ipflufenoquin]?
A: Observed efficacy (Alternaria solani; 0.004 ppm): 9; Observed efficacy ([1]; 0.25 ppm): 25

Q: What does the source list for `CON(C(=O)c1cn(C)nc1C(F)F)C(C)Cc1c(Cl)cc(Cl)cc1Cl` (stereo not drawn) [Pydiflumetofen, pydiflumetofen]?
A: Observed efficacy (Septoria tritici; 0.004 ppm): 5; Observed efficacy (Septoria tritici; 0.016 ppm): 23; Observed efficacy (Cercospora sojina; 0.00025 ppm): 9

Q: How did the Observed efficacy (Alternaria solani; 0.063 ppm) turn out when `Cc1cc(C(F)(F)F)nn1CC(=O)N1CCC(c2nc(C3=NOC(c4c(F)cccc4F)C3)cs2)CC1` (stereo not drawn) [Oxathiapirolin, oxathiapiprolin] was run?
A: 0

Q: With `Cn1cc(C(=O)Nc2ccccc2-c2cc(F)c(F)c(F)c2)c(C(F)F)n1` [Fluxapyroxad, fluxapyroxad] as the compound, how does the Observed efficacy (Rhizoctonia solani; 0.25 ppm) read?
A: 46
